Measurements from patent US6642386B2, “N-(4-carbamimidoyl-phenyl)-glycine derivatives” (Hoffmann-La Roche Inc., priority 2002, dated 2003).
Values after ≈ are worked out from the molar mass of the structure shown. Read-outs that look alike come from different tables or passages of the source.

Legend:
[1] = tested on: human plasma; assay: prothrombin time (PT) clotting test; type: biochemical; details: inhibitor concentration which brought about a doubling of the PT clotting time, Innovin (recombinant human tissue factor)
Protocol: The activity of the low molecular weight substances can, moreover, be characterized in the “prothrombi” time” (PT) clotting test. The substances are prepared as a 10 mM solution in DMSO or DMSO/0.1M HCl (DHCl) and thereafter made up to the desired dilution in the same solvent. Thereafter, 0.25 ml of human plasma (obtained from whole blood anticoagulated with 1/10 volume of 108 mM Na citrate) was placed in the instrument-specific sample container. In each case 5 μl of each dilution of the substance-dilution series was then mixed with the plasma provided. This plasma/inhibitor mixture was incubated at 37° C. for 2 minutes. Thereafter, there were pipetted to the semi-automatic device (ACL, Automated Coagulation Laboratory (Instrument Laboratory)) 50 μl of plasma/inhibitor mixture in the measurement container. The clotting reaction was initiated by the addition of 0.1 ml of Innovin® (recombinant human tissue factor combined with calcium buffer and synthetic phospholipids(Dade Behring®, Inc.). The time up to the fibrin cross-linking was determined photooptically from the ACL. The inhibitor concentration, which brought about a doubling of the PT clotting time, was determined by means of a graph.

[2] = Solubility (phosphate buffer); type: physicochemical

CCOc1cc(O[C@@H]2CCCN(C)C2)c(F)c([C@@H](Nc2ccc(C(=N)N)cc2)C(=O)O)c1 (racemic) [Example 2.3, (RS)- and (SR)-(4-carbamimidoyl-phenylamino)-[5-ethoxy-2-fluoro-3-[(RS)-1-methyl-piperidin-3-yloxy]-phenyl]-acetic acid]
concentration doubling PT clotting time [1]: 2.1 µM
Solubility (phosphate buffer, pH 6.5) ([2]; pH 6.5): 2.2 mg/ml

CCOc1cc(OCC2CCN(C)CC2)c(F)c(C(Nc2ccc(C(=N)N)cc2)C(=O)O)c1 (racemic) [Example 6.3, (RS)-(4-carbamimidoyl-phenylamino)-[5-ethoxy-2-fluoro-3-(1-methyl-piperidin-4-ylmethoxy)-phenyl]-acetic acid]
melting point: 232 °C

CCOc1cc(OC2CCN(C)CC2)c(F)c(C(Nc2ccc(C(=N)N)cc2)C(=O)O)c1 (racemic) [Example 13.3, (RS)-(4-carbamimidoyl-phenylamino)-[5-ethoxy-2-fluoro-3-(1-methyl-piperidin-4-yloxy)-phenyl]-acetic acid]
concentration doubling PT clotting time [1]: 3.6 µM
solubility ([2]; aqueous buffer, pH 5 (stated in the cell), read-out: Solubility (phosphate buffer, pH 5)): 3300 µg/mL (≈ 7.42 mM)

CCOc1cc(OC2CCN(C)CC2)c(F)c([C@@H](Nc2ccc(C(=N)N)cc2)C(=O)O)c1 [Example 13.8, (R)-(4-carbamimidoyl-phenylamino)-[5-ethoxy-2-fluoro-3-(1-methyl-piperidin-4-yloxy)-phenyl]-acetic acid]
concentration doubling PT clotting time [1]: 1.6 µM
solubility ([2]; pH 6.5, aqueous buffer, read-out: Solubility (phosphate buffer, pH 6.5)): 5700 µg/mL (≈ 12.8 mM)
